In PubChem BioAssay AID2305 (GlaxoSmithKline (GSK), 2010) one finds IC50 data, which are given here for 63 compounds.

Each structure is given as a SMILES string.

This experiment concerns P. falciparum 3D7 growth, pLDH absorbance. Description: blood-stage malaria parasite growth potency – strain 3D7, dose response (AID 2305).
In general, IC50 refers to the concentration needed to halve the response being measured. As to `COCn1ccc2c3c(N)nc(N)nc3ccc21`, the IC50 was determined as 990 nM.

Take `CCCC(C)Nc1nc(C)cc(N[C@@H](CC(C)C)C(=O)NCc2ccc(C)cc2)n1` (stereo partly drawn): the half-inhibitory concentration (IC50) amounted to 1010 nM.

Regarding `COc1ccc(Nc2nccc(N3CCC(NC(=O)C(C)c4ccc(Cl)cc4)CC3)n2)cc1` (stereo not drawn), the IC50 was 930 nM.

Take `COc1ccc(CCNCCCCCCNCCc2ccc(Cl)cc2)c(Cl)c1OC`: the half-inhibitory concentration (IC50) turned out to be 830 nM.

Compound `CCC[C@@H]([C@@H](CC(C)C)C(=O)N[C@@H](CCCN=C(N)NS(C)(=O)=O)C(=O)Nc1nccs1)N(O)C=O` had an IC50 of 940 nM.

In turn, `CN=C(N)c1ccc(NC(=O)C=Cc2ccc(C(=O)Nc3ccc(C(N)=NC)cc3)cc2)cc1` came in with an IC50 of 30 nM. Compared with the last compound, the IC50 is about 31-fold lower.

For `CC(=O)Nc1ccc(CN2CCC(NC(=O)c3ccc(-c4cccc(Cl)c4)s3)CC2)cc1`, the IC50 was determined as 790 nM.

For `Cc1nc(N=C(N)N)nc2ccc(C(C)(C)C)cc12`, the IC50 was determined as 750 nM.

Turning to `CC1CCN(Cc2c(O)ccc3c(=O)c(-c4nc5ccccc5s4)c(N)oc23)CC1`, the half-inhibitory concentration (IC50) came to 160 nM.

On to `CCC(=C(CC)c1ccc(O)c(CNC2CCCCC2)c1)c1ccc(O)c(CNC2CCCCC2)c1`, for which the half-maximal inhibitory concentration (IC50) came to 150 nM.

`COc1cc(CNC[C@@H](O)[C@H](Cc2ccccc2)NC(=O)c2cc(C3CCCC3)cc(N3CCCS3(=O)=O)c2)cc(OC)c1` showed a concentration for half-maximal inhibition (IC50) of 1240 nM.

The compound `CS(=O)(=O)Nc1ccc2[nH]cc(C3C[C@H]4CC[C@@H](C3)N4CC3CCC(NC(=O)/C=C/c4ccc(Cl)c(Cl)c4)CC3)c2c1` (stereo partly drawn) returned a half-inhibitory concentration (IC50) of 870 nM. This IC50 and that of the compound before are within 1.5-fold of each other.

In turn, `Cc1cc(N)nc2ccc(CNCCc3ccccc3Br)cc12` gave a half-inhibitory concentration (IC50) of 120 nM. Compared with the last compound, the IC50 is about 7.2-fold lower.

Consider `O=C(Nc1cccc(-c2ccc(-c3nc4ccc(C(F)(F)F)cc4[nH]3)s2)c1)c1ccncc1`, for which the IC50 was determined as 680 nM.

Consider `O=C(Nc1ccc(-c2cccc(-c3nc4ccc(F)cc4[nH]3)c2)cc1)c1ccncc1`, for which the IC50 turned out to be 720 nM.

`COc1ccc(-c2cccc(NC(=O)c3cccc(Cl)c3)c2)cc1CN1CCCN(C)CC1` yielded a half-maximal inhibitory concentration (IC50) of 230 nM.

For `CCOc1ccc(C(=O)Nc2cc(Cl)ccc2O)cc1Cl`, the half-maximal inhibitory concentration (IC50) was 700 nM. This IC50 is about 3-fold higher than that of the compound before.

Turning to `Cc1cc(Nc2ccc(Cl)cc2)n2nc(C(F)(F)F)nc2n1`, the 50% inhibitory concentration (IC50) was 120 nM. This IC50 lies about 5.8-fold lower than the previous one.

Consider `Cc1cccc2[nH]c(-c3ccc(-c4cccc(NC(=O)NCc5ccc(F)cc5)c4)cc3)nc12`, for which the 50% inhibitory concentration (IC50) was found to be 150 nM.

On to `COc1ccc2c(=O)c(-c3ccc(OC(F)(F)F)cc3)c(C)[nH]c2c1`, for which the concentration for half-maximal inhibition (IC50) was determined as 230 nM.

`Oc1ccc2ccccc2c1CNCCC1CCCCC1` had a half-maximal inhibitory concentration (IC50) of 170 nM.

`Cc1cc2nc(-c3ccc(SCC(=O)Nc4ccc5c(c4)OCCO5)nc3)[nH]c2cc1C` registered an IC50 of 990 nM.

Consider `COc1ccccc1Nc1nc(C)cc(NCc2ccc(-c3c(C)noc3C)cc2)n1`, for which the IC50 is 870 nM.

For the compound `O=C(Nc1cccc(CN2CCCN(Cc3ncc[nH]3)CC2)c1)c1ccc2ccccc2c1`, the IC50 is 630 nM.

Regarding `Cc1nc(-c2cccc(Nc3nccc(NCC(O)c4ccccc4)n3)c2)cs1` (stereo not drawn), the IC50 stood at 790 nM.

For the compound `CC(C)Oc1cc2c(cc1NS(=O)(=O)c1ccc(-c3ccc(Cl)cc3)cc1)CCN(C)CC2`, the half-inhibitory concentration (IC50) came to 1040 nM.

As to `CN(Cc1ccc(C#N)cc1)C1CCN(c2cc(NC(=O)c3ccc(F)cc3)ccn2)CC1`, the concentration for half-maximal inhibition (IC50) came to 1430 nM.

In turn, `O=C(C=Cc1ccc(Cl)c(Cl)c1)NCCCCCN1CCC(CCCNC(=O)c2ccc3c(c2)OCO3)CC1` showed a 50% inhibitory concentration (IC50) of 150 nM.

Regarding `CCOc1c(C)cc(C(F)(F)F)cc1CNCCCNc1cc(=O)c2ccccc2[nH]1`, the IC50 stood at 160 nM. This IC50 and that of the compound before are within 1.5-fold of each other.

`O=C(Nc1cccc(OC2CCN(Cc3ccccc3)CC2)c1)Nc1cccc([N+](=O)[O-])c1` showed an IC50 of 780 nM.

`COc1ccc(CNCc2ccc(-c3cccc(-c4nc5ccccc5[nH]4)c3)cc2)cc1`: the concentration for half-maximal inhibition (IC50) was found to be 210 nM. Against the preceding compound, the IC50 is about 3.7-fold lower.

Take `O=C(/C=C/c1ccc(C(F)(F)F)cc1)NCCCCCN1CCN(C(=O)Nc2ccc(F)c(Cl)c2)CC1`: the half-inhibitory concentration (IC50) was found to be 1210 nM.

`Cc1ccc(C(=O)Nc2ccc(Nc3ccnc4cc(-c5nccs5)ccc34)cc2O)cc1` came in with an IC50 of 50 nM.

As to `O=C(Nc1cccc(CN2CCCN(Cc3ccc(O)cc3)CC2)c1)c1ccc2ccccc2n1`, the IC50 was 940 nM. Compared with the last compound, the IC50 is about 19-fold higher.

In turn, `FC(F)(F)COc1ccc(CCNCCCCNCCc2ccc(OCC(F)(F)F)c3ccccc23)c2ccccc12` displayed an IC50 of 650 nM.

The compound `OCCN1CCN(Cc2ccc(-c3cccc(-c4nc5ccccc5[nH]4)c3)cc2)CC1` showed an IC50 of 750 nM. The IC50 values of the last two compounds are within 1.5-fold of each other.

As for `O=C(Nc1cccc(C(F)(F)F)c1)c1cc([N+](=O)[O-])cc2cn[nH]c12`, the IC50 is 990 nM.

`O=C(c1cc(-c2ccco2)[nH]n1)N1CCN(S(=O)(=O)c2ccc(Br)cc2)CC1` gave an IC50 of 500 nM.

`COc1cc(Nc2nccc(N3CCC(NS(=O)(=O)c4ccc(NC(C)=O)cc4)CC3)n2)cc(OC)c1OC` showed an IC50 of 970 nM.

For `O=C(/C=C/c1ccc(Cl)cc1)NCCCCCN1CCCC(C(=O)Nc2ccc(F)c(Cl)c2)C1` (stereo not drawn), the 50% inhibitory concentration (IC50) was determined as 1120 nM. The IC50 values of the last two compounds are within 1.5-fold of each other.

Compound `Oc1cccc(Nc2nc(NCc3ccccc3)c3ccccc3n2)c1` returned a half-inhibitory concentration (IC50) of 40 nM. This IC50 lies about 28-fold lower than the previous one.

For `COc1ccc2nc(-c3cc(-c4ccc(NC(=O)C(C)C)cc4)cnc3N)[nH]c2c1`, the IC50 amounted to 560 nM.

As for `CCCC1N=C(N)N=C(N)N1c1cccc(C(F)(F)F)c1` (stereo not drawn), the IC50 is 590 nM.

On to `C=CCN(C(=O)c1ccc(Cl)c([N+](=O)[O-])c1)c1nc(-c2ccccc2)cs1`, for which the 50% inhibitory concentration (IC50) amounted to 400 nM.

As to `COc1ccc2nccc([C@@H](O)CN3CCC(NC(=O)/C=C/c4cc([N+](=O)[O-])ccc4OC)CC3)c2c1`, the concentration for half-maximal inhibition (IC50) came out at 260 nM.

The compound `O=C(/C=C/c1c(Cl)cccc1Cl)NC1CCC(CN2[C@@H]3CC[C@H]2CC(c2c[nH]c4ccccc24)C3)CC1` (stereo partly drawn) gave an IC50 of 840 nM.

`CCCn1c(SCC(=O)Nc2cc(C(F)(F)F)ccc2Cl)n[nH]c1=O`: the IC50 came out at 220 nM.

As to `CN(C)C=Nc1ccc(OCCCCCCOc2ccc(N=CN(C)C)cc2)cc1`, the IC50 stood at 130 nM.

With `CC(C)CN1C(=O)c2ccccc2C(C(=O)Nc2cccc(C#N)c2)C1c1cccs1` (stereo not drawn), the IC50 is 160 nM.

`Cc1cc(C2CCN(CCCCNC(=O)c3ccc(NC(=O)c4ccc(Cl)cc4)cc3)CC2)c(C)cc1OC(C)C` displayed an IC50 of 740 nM. Compared with the last compound, the IC50 is about 4.6-fold higher.

Compound `CCOc1ccc(Br)cc1/C=C/C(=O)Nc1ccc2c(c1)CN(C)CCC2` gave an IC50 of 820 nM.

In turn, `Nc1nccc2ccc(-c3cccc(OCc4ccccc4)c3)cc12` gave a half-maximal inhibitory concentration (IC50) of 290 nM. This IC50 lies about 2.8-fold lower than the previous one.

In turn, `CC1(C)N=C(N)NC(NOCCCCCCONC2=NC(C)(C)N=C(N)N2)=N1` had a 50% inhibitory concentration (IC50) of 30 nM.

Turning to `CCOc1cc(Cc2cnc(N)nc2N)cc(OCC)c1OCCCCC(=O)OC`, the 50% inhibitory concentration (IC50) is 40 nM.

In turn, `FC(F)(F)c1ccc2nc(-c3ccc(-c4ccc(CNCCN5CCNCC5)cc4)cc3)[nH]c2c1` registered an IC50 of 1120 nM.

Compound `Cc1ccc(Oc2ccc(NC(=O)CNc3ccccc3N3CCCC3=O)cc2)cc1` came in with an IC50 of 370 nM. Compared with the last compound, the IC50 is about 3-fold lower.

The compound `Cc1[nH]c2ccccc2c1C1=CCN(C[C@H]2C[C@@H]2C(=O)c2ccccc2)CC1` displayed an IC50 of 350 nM.

Consider `O=[N+]([O-])c1ccccc1C=NNc1ccnc2ccc(C(F)(F)F)cc12`, for which the IC50 turned out to be 710 nM.

In the case of `CC(C)NCc1cccc(-c2ccc(-c3nc4ccc(C(F)(F)F)cc4[nH]3)cc2)c1`, the 50% inhibitory concentration (IC50) came to 190 nM. Compared with the last compound, the IC50 is about 3.7-fold lower.

In the case of `NC1CCCN(Cc2ccc(-c3ccc(-c4nc5ccc(F)cc5[nH]4)s3)cc2)C1` (stereo not drawn), the half-inhibitory concentration (IC50) came to 180 nM.

`Cc1[nH]c2ccc([N+](=O)[O-])cc2c1C1=CCN(C)CC1` yielded a half-maximal inhibitory concentration (IC50) of 330 nM.

`Cc1cccc2[nH]c(-c3cccc(-c4cccc(C(=O)N5CCCCC5CN5CCC(O)C5)c4)c3)nc12` (stereo not drawn) registered an IC50 of 460 nM. This IC50 and that of the compound before are within 1.5-fold of each other.

`CSc1nccc(-c2ccc3ccnc(N)c3c2)n1`: the 50% inhibitory concentration (IC50) was determined as 920 nM.
